# From US20200207734A1, “HETEROCYCLIC COMPOUND AND USE THEREOF” (Takeda Pharmaceutical Company Limited, priority 2017, published 2020)
# Target: T1, human orexin type 2 receptor (Homo sapiens, UniProt O43614)
# T1 construct: human orexin type 2 receptor cDNA was inserted into pcDNA3.1(+) plasmid vector (Invitrogen); expressed in transfected cells
# T1 sequence (O43614 1-444): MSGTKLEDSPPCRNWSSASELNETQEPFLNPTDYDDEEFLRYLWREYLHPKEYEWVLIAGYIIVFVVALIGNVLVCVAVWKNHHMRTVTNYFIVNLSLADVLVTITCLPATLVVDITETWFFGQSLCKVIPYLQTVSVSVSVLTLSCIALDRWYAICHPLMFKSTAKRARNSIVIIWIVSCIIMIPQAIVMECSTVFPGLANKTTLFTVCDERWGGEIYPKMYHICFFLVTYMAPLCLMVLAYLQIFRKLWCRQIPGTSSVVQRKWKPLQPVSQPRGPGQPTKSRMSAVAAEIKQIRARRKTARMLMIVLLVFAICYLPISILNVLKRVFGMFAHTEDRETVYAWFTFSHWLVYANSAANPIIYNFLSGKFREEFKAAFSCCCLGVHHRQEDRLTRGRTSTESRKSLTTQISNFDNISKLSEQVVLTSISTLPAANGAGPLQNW
# Assay: Measurement of orexin type 2 receptor agonist activity (calcium fluorescence, CHO cells expressing hOX2R)
# Assay type: cell-based
# Settings: test compound 3 μM; CHO cells expressing human OX2 receptor; DMSO = 0%, orexin A (human) = 100%
# Source text: To obtain a cell clone stably expressing human orexin type 2 receptor, human orexin type 2 receptor cDNA was inserted into pcDNA3.1(+) plasmid vector (Invitrogen), and a plasmid DNA for expression of human orexin type 2 receptor (pcDNA3.1(+)/hOX2R) was cloned. The plasmid DNA was introduced into CHO-dhfr cell by an electroporation method, and human orexin type 2 receptor expressing clone cells were obtained by limiting dilution method by using G418 drug resistance as a selection marker.
# CHO cells forcibly expressing human OX2 receptor were seeded in each well of 384 well black transparent bottom plate (BD Falcon) at 7,500 cells/well, and cultured for one day in a 5% CO2 incubator at 37° C. After removal of the medium in the cell plate, assay buffer A containing a calcium indicator (HBSS (Thermo Fisher Scientific), 20 mM HEPES (Thermo Fisher Scientific), 0.1% BSA (Wako Pure Chemical Industries, Ltd. or Sigma-Aldrich), 2.5 μg/mL Fluo-4 AM (DOJINDO Chemical), 0.08% Pluronic F127 (DOJINDO Chemical), 1.25 mM probenecid (DOJINDO Chemical)) was added at 30 μL/well. The plate was stood for 30 min in a 5% CO2 incubator at 37° C., and further stood at room temperature for 30 min. A test compound prepared by diluting with assay buffer B (HBSS, 20 mM HEPES, 0.1% BSA) was added at 10 μL/well, and the fluorescence value was measured by FDSSμCELL (Hamamatsu Photonics K.K.) every one sec for 1 min, and thereafter every two sec for 1 min 40 sec. The activity (%) of the test compound was calculated assuming that variation in the fluorescence value when DMSO was added instead of the test compound was 0%, and variation in the fluorescence value when orexin A (human) (PEPTIDE INSTITUTE, INC.) was added at the final concentration of 10 nM was 100%.
row,SMILES,"OX2R agonist activity (3 μM, %) [%]"
1,"CS(=O)(=O)N[C@H]1CCN(C(=O)OC2CC2)[C@H]1Cc1cccc(-c2ccccc2)c1 (relative stereo) [Example 108, cyclopropyl cis-2-(biphenyl-3-ylmethyl)-3-((methylsulfonyl)amino)pyrrolidine-1-carboxylate]",69
2,"CS(=O)(=O)N[C@H]1CCCN(C(=O)OC2CC2)[C@H]1Cc1cccc(-c2ccccc2)c1 (relative stereo) [Example 126, cyclopropyl cis-2-(biphenyl-3-ylmethyl)-3-((methylsulfonyl)amino)piperidine-1-carboxylate]",90
3,"CC(C)OC(=O)N1CCC[C@H](NS(=O)(=O)C2CC2)[C@@H]1Cc1cccc(-c2ccccc2)n1 (relative stereo) [Example 178, isopropyl cis-3-((cyclopropylsulfonyl)amino)-2-((6-phenylpyridin-2-yl)methyl)piperidine-1-carboxylate]",99
4,"CC(C)OC(=O)N1CCC[C@H](NS(=O)(=O)CCl)[C@@H]1Cc1cccc(-c2ccccc2)n1 (relative stereo) [Example 181, isopropyl cis-3-(((chloromethyl)sulfonyl)amino)-2-((6-phenylpyridin-2-yl)methyl)piperidine-1-carboxylate]",100
5,"CC(C)OC(=O)N1CCC[C@H](NS(=O)(=O)N(C)C)[C@@H]1Cc1cccc(-c2ccccc2)n1 (relative stereo) [Example 185, isopropyl cis-3-((dimethylsulfamoyl)amino)-2-((6-phenylpyridin-2-yl)methyl)piperidine-1-carboxylate]",99

# The next lines start with the values.
row,"OX2R agonist activity (3 μM, %) [%]",SMILES
1,97,"CC(C)C(=O)N1CCC[C@H](NS(C)(=O)=O)[C@@H]1Cc1cccc(-c2ccccc2)c1 (relative stereo) [Example 95, N-(cis-2-(biphenyl-3-ylmethyl)-1-isobutyrylpiperidin-3-yl)methanesulfonamide]"
2,107,"CC(C)OC(=O)N1CCC[C@H](NS(C)(=O)=O)[C@@H]1Cc1cccc(-c2cc(F)ccc2F)n1 (relative stereo) [Example 100, isopropyl cis-2-((6-(2,5-difluorophenyl)pyridin-2-yl)methyl)-3-((methylsulfonyl)amino)piperidine-1-carboxylate]"
3,106,"CC(C)OC(=O)N1CCC[C@H](NS(C)(=O)=O)[C@@H]1Cc1cccc(-c2cccc(F)c2F)c1 (relative stereo) [Example 116, isopropyl cis-2-((2′,3′-difluorobiphenyl-3-yl)methyl)-3-((methylsulfonyl)amino)piperidine-1-carboxylate]"
4,82,"CC(C)OC(=O)N1CCC[C@H](NS(C)(=O)=O)[C@@H]1Cn1ccc(-c2ccccc2)n1 (relative stereo) [Example 122, isopropyl cis-3-((methylsulfonyl)amino)-2-((3-phenyl-1H-pyrazol-1-yl)methyl)piperidine-1-carboxylate]"
5,24,"CS(=O)(=O)N[C@H]1CCCN(C(=O)Oc2ccccc2)[C@H]1Cc1cccc(-c2ccccc2)c1 (relative stereo) [Example 145, phenyl cis-2-(biphenyl-3-ylmethyl)-3-((methylsulfonyl)amino)piperidine-1-carboxylate]"
6,65,"COC(=O)N1CCC[C@H](NS(C)(=O)=O)[C@@H]1Cc1cccc(-c2ccsc2)c1 (relative stereo) [Example 159, methyl cis-3-((methylsulfonyl)amino)-2-(3-(3-thienyl)benzyl)piperidine-1-carboxylate]"
7,68,"CCCS(=O)(=O)N[C@H]1CCCN(C(=O)OC(C)C)[C@H]1Cc1cccc(-c2ccccc2)n1 (relative stereo) [Example 173, isopropyl cis-2-((6-phenylpyridin-2-yl)methyl)-3-((propylsulfonyl)amino)piperidine-1-carboxylate]"
